Measured values: patent US20230022803A1, “NOVEL CRYSTALLINE FORM OF GPR40 AGONIST” (ILDONG Pharmaceutical Co., Ltd., priority 2021, published 2023)
Values after ≈ are worked out from the molar mass of the structure shown. Where two headings read alike, the source gives them in different places.

Key:
[1] = Gravimetric vapor sorption (GVS) analysis; type: physicochemical
Excerpt: The GVS analysis was made using an IGA Sorp instrument by Hiden Analytical. The instrumental parameters are listed below.
FIG. 6 illustrates the GVS analysis result.

[2] = Thermal analysis (TGA and DSC); type: physicochemical
Excerpt: The crystalline form Compound 1 prepared according to Example 1 was characterized by thermal gravimetric analysis (TGA) and differential scanning calorimetry (DSC). The TGA analysis was made by a TA Q5000 instrument. The DSC analysis was made by a TA Q2000 MDSC instrument. The instrumental parameters used are listed below.
FIGS. 2A and 2B show the results of the TGA and DSC analyses, respectively.

GPR40 = GPR40 (Homo sapiens, UniProt O14842); assay: Cell-based aequorin assay (agonistic activity); conditions: method and reference agonist of U.S. 2020/0223833
Sequence of GPR40 (O14842 whole entry, species assumed): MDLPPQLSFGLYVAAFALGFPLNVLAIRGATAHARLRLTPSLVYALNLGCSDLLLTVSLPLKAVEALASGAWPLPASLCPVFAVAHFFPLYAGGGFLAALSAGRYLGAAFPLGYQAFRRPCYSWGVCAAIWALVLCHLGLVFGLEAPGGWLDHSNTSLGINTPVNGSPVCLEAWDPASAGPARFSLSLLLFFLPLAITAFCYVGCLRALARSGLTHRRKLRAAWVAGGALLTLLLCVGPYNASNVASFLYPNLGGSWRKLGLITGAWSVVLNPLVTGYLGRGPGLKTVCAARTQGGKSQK
Method: The agonistic activity of the crystalline form of Compound 1 was measured by using the method described in U.S. Patent Application Publication No. 2020/0223833, which is incorporated herein by reference. The agonistic activity of the crystalline form of Compound 1 was higher than 70% of the activity of the reference agonist used in U.S. Patent Application Publication No. 2020/0223833, which falls within the category of the publication.

[3] = Visual solubility analysis in 13 solvents; type: physicochemical; conditions: organic solvent or mixture, thermodynamic from solid, read-out: Solubility (S)
Method: The solubility of the crystalline form Compound 1 was visually determined in 13 solvents. 5.0±0.2mg of the crystalline form Compound 1 was stirred at 20° C. with increasing volumes of solvents until a clear solution was visually observed.

SMILES: CC#C[C@@H](CC(=O)O)c1ccc(O[C@@H]2CCc3c(-c4ccc(O[C@@H]5CCOC5)nc4)ccc(F)c32)cc1 [Crystalline Form Compound 1, (S)-3-(4-(((R)-7-Fluoro-4-(6-(((R)-tetrahydrofuran-3-yl)oxy)pyridin-3-yl)-2,3-dihydro-1H-inden-1-yl)oxy)phenyl)hex-4-ynoic acid]
- 2nd adsorption cycle (0-90% RH), adsorbed water ([1]; GVS isotherm, 25 °C, 0-90% RH): 0.135 % w/w
- 1st adsorption cycle (50-90% RH), adsorbed water ([1]; GVS isotherm, 25 °C, 50-90% RH): 0.119 % w/w
- 1st desorption cycle (90-0% RH), desorbed water ([1]; GVS isotherm, 25 °C, 90-0% RH): 0.127 % w/w
- hygroscopic behavior ([1]; GVS, 25 °C): non-hygroscopic
- weight gain ([1]; from dryness to 90% RH during the second adsorption cycle): less than 0.2 % w/w
- thermal stability ([2]; TGA/DSC, heating rate 10° C./min): relatively high thermal stability
- TGA weight loss ([2]; from ambient to 130° C.): 0.13 % w/w
- agonistic activity relative to the activity of the reference agonist (GPR40): higher than 70%
- solubility ([3]; 2-Butanone, 20° C.): > 100000 µg/mL
- solubility ([3]; 2-Propanol, 20° C.): 5000 to 6000 µg/mL (≈ 9.97 to 12 mM)
- solubility ([3]; Acetone, 20° C.): > 100000 µg/mL
- solubility ([3]; Acetone/water 90:10, 20° C.): > 100000 µg/mL
- solubility ([3]; Acetonitrile, 20° C.): 6000 to 8000 µg/mL (≈ 12 to 16 mM)
- solubility ([3]; Dichloromethane, 20° C.): > 100000 µg/mL
- solubility ([3]; Ethyl acetate, 20° C.): 50000 to 100000 µg/mL (≈ 99.7 to 199 mM)
- solubility ([3]; Methanol, 20° C.): 6000 to 8000 µg/mL (≈ 12 to 16 mM)
- solubility ([3]; Methanol/water 90:10, 20° C.): 1000 to 2000 µg/mL (≈ 1.99 to 3.99 mM)
- solubility ([3]; Methyl tert-butyl ether, 20° C.): 2000 to 5000 µg/mL (≈ 3.99 to 9.97 mM)
- solubility ([3]; Tetrahydrofuran, 20° C.): > 100000 µg/mL
- solubility ([3]; Toluene, 20° C.): 10000 to 12000 µg/mL (≈ 19.9 to 23.9 mM)
- solubility ([3]; i-Propyl acetate, 20° C.): 17000 to 25000 µg/mL (≈ 33.9 to 49.8 mM)
